This is an account of results in PMC3946379 (Archives of biochemistry and biophysics, 2013).

The target of the assay is Aspartate aminotransferase (AAT) (Escherichia coli, UniProt P00509). Kind of assay: N-15 NMR of crystalline enzyme. Type of assay: binding. To be noted: PLP form, low pH; closed conformation; own earlier work reviewed.

SMILES strings stand for the structures.

Aspartate aminotransferase (AAT), sequence (P00509 whole entry): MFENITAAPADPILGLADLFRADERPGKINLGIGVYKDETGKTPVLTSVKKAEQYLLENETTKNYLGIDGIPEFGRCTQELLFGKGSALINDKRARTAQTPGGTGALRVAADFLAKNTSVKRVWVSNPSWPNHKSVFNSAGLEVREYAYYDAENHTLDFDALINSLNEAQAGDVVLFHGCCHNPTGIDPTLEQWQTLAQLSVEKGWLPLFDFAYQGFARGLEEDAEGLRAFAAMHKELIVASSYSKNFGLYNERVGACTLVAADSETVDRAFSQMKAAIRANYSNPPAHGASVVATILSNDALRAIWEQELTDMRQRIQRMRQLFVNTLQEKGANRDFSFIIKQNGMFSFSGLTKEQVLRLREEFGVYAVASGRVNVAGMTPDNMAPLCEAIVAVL

As to `O=C(O)/C=C\C(=O)O` [maleate], the “N-15 NMR of crystalline enzyme” value was “In crystalline samples of both the unliganded and maleate-liganded enzyme forms at low pH”.
